Assays:
Assay type in all cases: cell-based, human
A2780 cells [1] = experiment: Annexin V apoptosis assay, A2780; conditions: dose-dependent, p < 0.005
Protocol: A2780 and SKOV3 cell lines were treated with control (siltuximab 10 μM) and butein (5, 10, and 25 μM). After 6 h, the cells were fixed with 70% ethanol for cell cycle analysis and stained with propidium iodide (PI). Cell death was analyzed using the FITC Annexin V Apoptosis Detection kit with 7-AAD (Cat.no. 640922, BioLegend, San Diego, CA, USA). Cells were sorted using a FACS Canto II (BD Biosciences, Franklin Lakes, NJ, USA) and cell cycle and apoptosis were analyzed using BD FACS Diva software version 6. 2. Analysis (BD Biosciences, Franklin Lakes, NJ, USA) was performed in triplicate.

A2780 cells [2] = experiment: Clonogenic formation assay, A2780; conditions: compared with control siltuximab-treated cells
Protocol: A2780 and SKOV3 cell lines were seeded at approximately 5000 cells/well in 24-well plates. Butein was added to the cell medium at various concentrations (5, 10, and 25 μM) together with control siltuximab (CTNO328; EUSA Pharma, Inc., Hemel Hempstead, UK) for 12 h. After 2 weeks, the colonies formed were fixed with fixer buffer, stained with crystal violet, and imaged with a ChemiDoc imaging system (Bio-Rad, Herles, CA, USA).

SKOV3 cells = experiment: Matrigel invasion assay, SKOV3; conditions: 48 h
Protocol: Matrigel invasion assays were performed using a BioCoat Matrigel Invasion Chamber (BD Bioscience, Bedford, MA, USA). A2780 and SKOV3 cells (50,000 cells) were placed inside the chamber in serum-free medium containing 500 μL of drugs, and 700 μL of medium containing serum were placed outside the chamber. After incubation for 48 h, the infiltrating cells were stained using the Differential Quick Stain Kit (Cat.no. 26096-50, Electron Microscopy Sciences, Hatfield, PA, USA). Cells were imaged with a Slide Scanner (Aperio CS2, Leica Microsystems, Wetzlar, Germany) and the number of invading cells was quantified using Image J.

O=C(/C=C/c1ccc(O)c(O)c1)c1ccc(O)cc1O [butein]
Total apoptosis, A2780 (A2780 cells [1]): significantly increase | Clonogenicity, A2780 (A2780 cells [2]): significantly inhibited | Cell infiltration (invasion), SKOV3 (SKOV3 cells): similarly affected
